Calls of active or inactive are those of the source.

The target of assay [1] is Fructose-bisphosphate aldolase (Mycobacterium tuberculosis, UniProt P9WQA3). As to the kind of experiment: Fluorescence-based biochemical high throughput dose response assay for inhibitors of the fructose-bisphosphate aldolase (FBA) of M. tuberculosis. Type of assay: functional.
Assay [2] deals with Streptococcus sp. 'group A'. As to the kind of experiment: growth inhibition of control SK(-) GAS strain, dose response, counter-screen for streptokinase expression inhibitor project, luminescence, kanamycin, BacTiterGlo, confirmation (AID 1900). Type of assay: functional, organism-based.
A short description of assay [3]: A Cell Based Secondary Assay To Explore Cytotoxicity of Compounds that Sensitize Mycobacterium Tuberculosis to Beta-Lactam Antibiotics. Type of assay: functional.
A further assay has as its target T1, Streptokinase A (Streptococcus pyogenes serotype M1, UniProt P10520).
T1 sequence (P10520 whole entry): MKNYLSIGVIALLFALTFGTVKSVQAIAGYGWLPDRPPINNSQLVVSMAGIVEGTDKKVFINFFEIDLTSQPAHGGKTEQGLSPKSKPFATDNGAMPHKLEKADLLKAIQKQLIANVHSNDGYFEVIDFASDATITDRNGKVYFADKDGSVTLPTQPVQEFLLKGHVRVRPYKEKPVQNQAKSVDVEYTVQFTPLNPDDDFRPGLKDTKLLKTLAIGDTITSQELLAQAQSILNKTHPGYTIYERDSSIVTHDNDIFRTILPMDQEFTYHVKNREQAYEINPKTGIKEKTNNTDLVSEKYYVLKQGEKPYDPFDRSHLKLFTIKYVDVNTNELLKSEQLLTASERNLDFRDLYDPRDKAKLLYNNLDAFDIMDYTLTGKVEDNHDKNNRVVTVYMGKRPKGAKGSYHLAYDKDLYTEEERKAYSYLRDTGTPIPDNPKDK
As to the kind of experiment: S. pyogenes streptokinase expression inhibitors, potency, dose response, plasminogen activation absorbance, OD405 (AID 1914).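 Further: secreted streptokinase activity via plasminogen activation per viability signal from cell pellet.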 The class given is functional, Streptococcus pyogenes M1 GAS.

Another assay concerns Streptococcus. As to the kind of experiment: Group A Streptococcus viability loss, dose response, counter-screen for streptokinase expression inhibitor project, luminescence, BacTiterGlo (AID 1915).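 Further: potency for reduction of bacterial viability or growth.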 The class given is functional, organism-based. A general note: The purpose of a counterscreen is to sort out artefacts and off-target activity.
Another assay addresses Mu-type opioid receptor (Homo sapiens, UniProt P35372). The class given is functional, cell-based.
Assay [4] deals with 5-hydroxytryptamine receptor 2A (Mus musculus, UniProt P35363). The class given is functional, cell-based.
Assay [5] concerns the target T2, Sentrin-specific protease 1 (Homo sapiens, UniProt Q9P0U3).
T2 sequence (Q9P0U3 whole entry): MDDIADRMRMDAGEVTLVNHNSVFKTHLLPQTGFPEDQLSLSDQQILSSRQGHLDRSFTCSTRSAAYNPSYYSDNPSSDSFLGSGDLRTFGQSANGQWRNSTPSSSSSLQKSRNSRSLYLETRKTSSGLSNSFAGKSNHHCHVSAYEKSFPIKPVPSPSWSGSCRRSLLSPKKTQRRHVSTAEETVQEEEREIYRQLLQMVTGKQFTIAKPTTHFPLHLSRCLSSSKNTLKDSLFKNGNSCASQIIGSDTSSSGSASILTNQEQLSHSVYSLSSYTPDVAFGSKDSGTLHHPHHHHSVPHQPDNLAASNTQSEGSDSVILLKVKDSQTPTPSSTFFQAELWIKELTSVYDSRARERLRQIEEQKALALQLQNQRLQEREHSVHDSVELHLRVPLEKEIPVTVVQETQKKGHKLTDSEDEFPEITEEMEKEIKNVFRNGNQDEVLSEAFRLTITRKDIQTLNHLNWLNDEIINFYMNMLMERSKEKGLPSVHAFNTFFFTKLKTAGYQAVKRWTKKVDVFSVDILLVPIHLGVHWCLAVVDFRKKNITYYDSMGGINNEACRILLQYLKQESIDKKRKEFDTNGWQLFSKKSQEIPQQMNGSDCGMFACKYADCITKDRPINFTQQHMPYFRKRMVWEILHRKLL
The assay can be described thus: potency of human SENP1 inhibitors, dose response, biochemical, kinetic FRET (AID 651697). The class given is functional. The following applies: read-out: IC50_Mean.

The target of assay [6] is T2, Sentrin-specific protease 1. The assay can be described thus: Dose response confirmation of small molecule inhibitors of the catalytic domain of the SUMO protease, SENP1 in a FRET assay. The class given is functional. The conditions noted are these: read-out: IC50_Mean.
Assay [7] can be described thus: inhibitors of HIV Env-driven cell fusion, dose response, cherry-pick (AID 652057). The class given is functional, cell-based.
Assay [8] is described as follows: CEM21 lymphoblast cell cytotoxicity, dose response, cytotoxicity control for viral fusion inhibitor project, CellTiter-Glo luminescence, cherry-picked (AID 652042).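 Further: potency for signal decrease meaning cytotoxicity.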 The class given is functional, cell-based. On the technique in general: ATP-based viability assays read luminescence as a measure of living cells.
A further assay has as its system INS1. The assay can be described thus: beta cell apoptosis inhibitors, cytokine rescue, dose response, luminescence, retest (AID 449756).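 Further: cell death triggered by IL-1 beta plus TNF-alpha plus IFN-gamma mixture; protective hits raise ATP signal compared with cytokine alone wells.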 The class given is functional, cell-based. The conditions noted are these: Rattus norvegicus.
Assay [9] is described as follows: HeLa cell cytotoxicity, dose response, cytotoxicity control for MgcRacGAP inhibitor project (AID 624300). Type of assay: functional.
Assay [10] deals with T3, Rac GTPase-activating protein 1 (Homo sapiens, UniProt Q9H0H5).
T3 sequence (Q9H0H5 whole entry): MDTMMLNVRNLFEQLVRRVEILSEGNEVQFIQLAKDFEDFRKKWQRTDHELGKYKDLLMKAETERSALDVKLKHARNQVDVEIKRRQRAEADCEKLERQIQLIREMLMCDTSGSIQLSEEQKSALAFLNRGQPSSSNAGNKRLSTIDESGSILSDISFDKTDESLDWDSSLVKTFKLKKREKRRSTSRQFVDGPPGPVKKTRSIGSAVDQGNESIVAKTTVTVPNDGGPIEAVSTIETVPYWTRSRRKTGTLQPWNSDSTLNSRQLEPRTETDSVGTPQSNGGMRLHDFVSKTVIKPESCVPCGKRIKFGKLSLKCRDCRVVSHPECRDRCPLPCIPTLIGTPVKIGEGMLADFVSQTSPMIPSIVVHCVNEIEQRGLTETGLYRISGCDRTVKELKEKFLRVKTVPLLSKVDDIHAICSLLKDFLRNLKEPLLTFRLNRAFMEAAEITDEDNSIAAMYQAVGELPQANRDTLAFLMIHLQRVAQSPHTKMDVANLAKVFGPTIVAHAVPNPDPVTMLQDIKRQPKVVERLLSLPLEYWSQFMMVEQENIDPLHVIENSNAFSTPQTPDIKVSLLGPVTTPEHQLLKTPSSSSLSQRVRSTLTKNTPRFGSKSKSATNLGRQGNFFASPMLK
The assay can be described thus: MgcRacGAP GTPase-activating activity inhibitors, confirmation, biochemical, ADP Hunter fluorescence, primary and confirmatory (AID 624330). Type of assay: functional.

The nature of assay [11]: cells. The class given is functional, cell-based.
The target of assay [12] is T4, Trace amine-associated receptor 1 (Homo sapiens, UniProt Q96RJ0).
T4 sequence (Q96RJ0 whole entry): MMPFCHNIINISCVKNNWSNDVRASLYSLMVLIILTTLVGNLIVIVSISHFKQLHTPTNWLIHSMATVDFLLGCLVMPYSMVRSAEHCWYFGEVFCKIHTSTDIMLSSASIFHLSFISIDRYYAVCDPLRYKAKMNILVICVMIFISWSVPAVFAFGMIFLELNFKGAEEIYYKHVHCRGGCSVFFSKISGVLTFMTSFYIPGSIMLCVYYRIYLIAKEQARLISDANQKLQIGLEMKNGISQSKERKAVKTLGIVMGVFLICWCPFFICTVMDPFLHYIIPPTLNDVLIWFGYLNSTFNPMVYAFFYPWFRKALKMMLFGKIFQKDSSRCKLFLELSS
As to the kind of experiment: Fluorescence-based cell-based high throughput dose response assay to identify agonists of the human trace amine associated receptor 1 (TAAR1). Type of assay: functional.

Assay [13] has as its target T4, Trace amine-associated receptor 1. As to the kind of experiment: Counterscreen for agonists of the human trace amine associated receptor 1 (hTAAR1): Fluorescence-based cell-based high throughput dose response assay to identify hTAAR1 agonist that also desensitize TAAR1 receptor response. Type of assay: functional.
A short description of assay [14]: cells. Type of assay: functional, cell-based. This is another data set of the same source.
A short description of assay [15]: ZM109 Env clade C HIV-1 fusion inhibitors, dose response, HeLa effector, CEM target cells, luciferase, cherry-pick (AID 652058). Type of assay: functional, cell-based.
Assay [16] can be described thus: inhibitors of clade B AD8 Env fusion, dose response, cell-based, cherry-pick (AID 652062).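 Further: luciferase signal from cell-cell fusion driven by HIV-1 clade B AD8 Env; potency is for inhibitors of fusion seen as a drop in luminescence.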 Type of assay: functional.
A further assay deals with T5, Cysteine protease ATG4B (Homo sapiens, UniProt Q9Y4P1).
T5 sequence (Q9Y4P1 whole entry): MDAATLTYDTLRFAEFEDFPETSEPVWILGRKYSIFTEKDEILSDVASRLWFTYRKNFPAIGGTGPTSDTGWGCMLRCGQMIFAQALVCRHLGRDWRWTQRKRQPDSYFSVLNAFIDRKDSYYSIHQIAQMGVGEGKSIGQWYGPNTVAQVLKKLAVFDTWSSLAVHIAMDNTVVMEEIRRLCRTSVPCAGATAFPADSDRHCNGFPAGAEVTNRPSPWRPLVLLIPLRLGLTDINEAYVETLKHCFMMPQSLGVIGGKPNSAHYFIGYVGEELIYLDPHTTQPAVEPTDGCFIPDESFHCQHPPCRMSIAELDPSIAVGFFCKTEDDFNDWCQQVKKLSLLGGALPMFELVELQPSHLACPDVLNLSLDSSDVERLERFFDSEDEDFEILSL
Type of assay: functional.

A further assay addresses Phospholipase A2 (Homo sapiens, UniProt P04054). Type of assay: functional.
The target of the next assay is T6, Cytochrome P450 1A2 (Homo sapiens, UniProt P05177).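 Further: PubChem cytochrome P450 panel assay, CYP1A2 panel member.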
T6 sequence (P05177 whole entry): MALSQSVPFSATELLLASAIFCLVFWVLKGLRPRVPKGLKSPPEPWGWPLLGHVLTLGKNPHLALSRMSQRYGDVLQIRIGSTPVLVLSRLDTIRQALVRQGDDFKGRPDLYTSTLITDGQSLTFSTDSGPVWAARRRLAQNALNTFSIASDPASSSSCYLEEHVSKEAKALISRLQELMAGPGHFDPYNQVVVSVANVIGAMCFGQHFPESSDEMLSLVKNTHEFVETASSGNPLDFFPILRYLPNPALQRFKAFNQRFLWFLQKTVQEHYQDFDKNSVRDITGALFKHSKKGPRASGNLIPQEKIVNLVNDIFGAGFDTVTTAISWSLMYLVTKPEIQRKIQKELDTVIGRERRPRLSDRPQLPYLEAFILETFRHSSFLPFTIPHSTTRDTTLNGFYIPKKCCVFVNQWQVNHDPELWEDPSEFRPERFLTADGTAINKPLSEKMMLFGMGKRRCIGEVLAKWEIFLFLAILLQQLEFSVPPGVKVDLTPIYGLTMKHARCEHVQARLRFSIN

Sequence of Fructose-bisphosphate aldolase (P9WQA3 whole entry): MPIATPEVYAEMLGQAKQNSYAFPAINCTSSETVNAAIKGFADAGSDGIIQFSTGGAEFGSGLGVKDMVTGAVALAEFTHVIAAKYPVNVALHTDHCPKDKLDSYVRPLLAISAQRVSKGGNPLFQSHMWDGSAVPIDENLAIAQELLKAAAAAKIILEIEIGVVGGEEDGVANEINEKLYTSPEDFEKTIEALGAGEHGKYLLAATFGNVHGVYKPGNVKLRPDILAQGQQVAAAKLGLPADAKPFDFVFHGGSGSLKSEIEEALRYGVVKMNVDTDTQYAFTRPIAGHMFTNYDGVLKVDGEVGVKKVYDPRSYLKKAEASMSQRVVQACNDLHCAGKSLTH
Sequence of Mu-type opioid receptor (P35372 whole entry): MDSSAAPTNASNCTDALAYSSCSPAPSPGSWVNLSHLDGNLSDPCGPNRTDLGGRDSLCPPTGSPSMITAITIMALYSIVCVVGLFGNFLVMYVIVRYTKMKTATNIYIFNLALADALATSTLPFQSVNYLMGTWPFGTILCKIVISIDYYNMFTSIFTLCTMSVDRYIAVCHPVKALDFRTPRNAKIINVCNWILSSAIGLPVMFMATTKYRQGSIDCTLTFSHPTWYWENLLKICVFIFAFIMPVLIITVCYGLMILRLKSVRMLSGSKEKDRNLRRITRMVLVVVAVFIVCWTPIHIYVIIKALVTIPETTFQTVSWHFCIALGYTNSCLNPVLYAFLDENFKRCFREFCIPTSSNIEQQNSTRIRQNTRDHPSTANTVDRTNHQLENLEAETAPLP
Sequence of 5-hydroxytryptamine receptor 2A (P35363 whole entry): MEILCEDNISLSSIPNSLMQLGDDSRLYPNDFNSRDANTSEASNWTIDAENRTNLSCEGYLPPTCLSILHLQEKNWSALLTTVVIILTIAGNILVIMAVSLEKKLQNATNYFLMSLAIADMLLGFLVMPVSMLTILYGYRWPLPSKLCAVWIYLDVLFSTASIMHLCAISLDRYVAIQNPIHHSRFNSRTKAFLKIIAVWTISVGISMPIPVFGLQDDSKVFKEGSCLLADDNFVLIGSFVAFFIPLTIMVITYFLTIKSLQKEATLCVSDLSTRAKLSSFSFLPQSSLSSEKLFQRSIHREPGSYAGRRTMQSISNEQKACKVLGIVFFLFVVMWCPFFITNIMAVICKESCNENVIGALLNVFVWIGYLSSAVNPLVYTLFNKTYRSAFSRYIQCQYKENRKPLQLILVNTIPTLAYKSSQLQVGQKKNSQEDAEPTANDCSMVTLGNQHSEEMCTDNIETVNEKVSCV
Sequence of Phospholipase A2 (P04054 whole entry): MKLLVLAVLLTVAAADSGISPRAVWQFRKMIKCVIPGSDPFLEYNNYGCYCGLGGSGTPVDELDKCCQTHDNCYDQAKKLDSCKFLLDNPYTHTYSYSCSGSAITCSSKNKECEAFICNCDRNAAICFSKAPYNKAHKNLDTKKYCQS

On to `CCO[C@@H]1c2c(ccc3ccc(=O)oc23)OC(C)(C)[C@H]1O`, for which the IC50 in assay [1] was > 1.11 µM (active).
For orientation: EC50 means the midpoint of the concentration-response curve. By CC50 is commonly meant the concentration giving 50% cytotoxicity. Consider `COc1ccc2oc(C(=O)Nc3nc4ccccc4[nH]3)c(C)c2c1`, for which the EC50 is 2.61 µM (active) in assay [2]; > 150 µM (not active) at Streptokinase A; 12 µM (active) in the assay with Streptococcus; 92.5 µM (inactive) on Mu-type opioid receptor; 76.1 µM (inactive) in assay [4]. Moreover, in assay [3], the CC50 is > 40 µM (active).
Consider `Cn1c2c(c3ccccc31)CCN(CCCCN1CCN(c3ccccc3)CC1)C2=O`, for which the EC50 at Mu-type opioid receptor was 92.4 µM (inactive); in assay [4], 0.0455 µM (active).
In the case of `Cc1ccc2n(n1)c(=O)c(Cc1ccccc1)c([O-])[n+]2-c1ccccc1`, the IC50 in [5] was 16.8 µM (active); in [6] it was 12.7 µM (active).
Broadly, the AC50 is the concentration giving half of the maximal activity seen. On to `CCc1nc(N2CCCCC2)c2oc3ccccc3c2n1`, for which the AC50 in assay [7] was 30.8 µM (active); in [8] it was 41.8 µM (active).
Regarding `Cc1ccc2c(c1)[nH]c1c(N3CCN(Cc4ccccc4)CC3)ncnc12`, the AC50 with INS1 is 3.89 µM (active). Further, in assay [9], the CC50 is 57.9 µM (active). Further, the IC50 in [10] was 47.8 µM (active).
In the case of `CCOc1ccc(C/C(=N/CCc2ccccc2)C2=C(O)CC(C)(C)CC2=O)cc1OCC`, the IC50 in “cells [11]” was > 29.9 µM (inactive); in assay [13], 2.84 µM (active). Also, the EC50 is 0.358 µM (active) in assay [12] and > 29.9 µM (inactive) in the assay “cells [14]”.
On to `COc1ccc2c3c([nH]c2c1)[C@@H](CO)N(C(=O)Nc1cccc(F)c1)CC31CN(S(=O)(=O)c2cccc(C)c2)C1`, for which the AC50 was 22.7 µM (active) in assay [7], 23.1 µM (active) in assay [8], 14.9 µM (active) in assay [15] and 24.2 µM (active) in assay [16].
With `CC(C)c1ccc2nc3sc(C(=O)N4CCc5ccccc5C4)c(N)c3cc2c1`, the EC50 in assay [2] is 25.6 µM (active); on Streptokinase A, 101 µM (active); with Streptococcus it was > 150 µM (not active). Besides, the IC50 is 7.08 µM (active) at Cysteine protease ATG4B, 4.83 µM (active) at Phospholipase A2, 2.58 µM (active) in [5] and 5.22 µM (active) in assay [6]. Further, the AC50 on Cytochrome P450 1A2 was 11.2 µM (inconclusive).
For `N#CCCN(C(=O)COc1ccc(F)cc1Br)c1ccccc1F`, in assay [1], the IC50 was > 9.99 µM (inactive).
